Results on 19 molecules are retold here after ChEMBL document CHEMBL1158450, “A small-molecule inhibitor of Nipah virus envelope protein-mediated membrane fusion” (J Med Chem, 2009).

Activity calls are given as the source filed them. The calls are words filed in the database; no cut-off is given here. A value given as a limit tells only on which side of the number the result lay.

Data set [1] concerns the target T1, Glycoprotein G (Henipavirus nipahense) (UniProt Q9IH62).
T1 sequence (whole entry): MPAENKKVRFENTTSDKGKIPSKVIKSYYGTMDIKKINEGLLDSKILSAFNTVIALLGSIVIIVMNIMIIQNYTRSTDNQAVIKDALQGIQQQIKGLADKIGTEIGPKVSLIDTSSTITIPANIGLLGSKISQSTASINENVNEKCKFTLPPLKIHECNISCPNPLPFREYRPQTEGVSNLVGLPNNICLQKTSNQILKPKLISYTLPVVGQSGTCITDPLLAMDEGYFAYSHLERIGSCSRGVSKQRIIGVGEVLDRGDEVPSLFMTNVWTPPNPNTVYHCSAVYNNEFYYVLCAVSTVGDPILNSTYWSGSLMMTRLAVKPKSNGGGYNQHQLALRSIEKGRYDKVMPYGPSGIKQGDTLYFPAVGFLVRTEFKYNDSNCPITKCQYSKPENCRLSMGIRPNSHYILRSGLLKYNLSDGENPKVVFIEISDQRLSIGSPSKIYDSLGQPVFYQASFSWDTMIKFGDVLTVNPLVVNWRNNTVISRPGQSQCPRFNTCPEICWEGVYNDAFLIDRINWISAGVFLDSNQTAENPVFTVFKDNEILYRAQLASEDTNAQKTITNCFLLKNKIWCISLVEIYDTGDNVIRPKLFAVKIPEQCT
In kind it is cell-based. The settings on record: Vero, 10 to 200 uM.

Data set [2] relates to Vero. The data set can be described thus: Cytotoxicity against african green monkey Vero cells at 10 to 200 uM after 16 hrs by MTT assay. Format: cell-based. The settings on record: chlorocebus sabaeus. (In general: Tetrazolium assays rely on reduction of a dye to a coloured formazan, in cell work by metabolically active cells.)
Data set [3] has as its system Vero. Format: cell-based. The settings on record: Measles morbillivirus, 10 to 200 uM.
A further data set concerns Nipah virus. The experiment in a line: Inhibition of Nipah virus-mediated cell fusion infected in african green monkey Vero cells assessed as reduction in virus-induced syncytium formation after 24 hrs relative to control. In kind it is functional, organism-based. The settings on record: Henipavirus nipahense.
Data set [4] can be described thus: Selectivity index, CC50 for african green monkey Vero cells to EC50 for Measles virus hemagglutininin/F-mediated cell-cell fusion. Format: toxicity, cell-based. The settings on record: read-out: Ratio CC50/EC50.
Data set [5] concerns Vero. The data set can be described thus: (§1) Cytotoxicity against african green monkey Vero cells after 16 hrs by MTT assay. In kind it is cell-based, Chlorocebus sabaeus. The settings on record: Chlorocebus sabaeus, Vero, 16 h.
Data set [6] in a line: as §1. The settings on record: chlorocebus sabaeus, Vero cells. Format: cell-based, Chlorocebus sabaeus.
In the next data set the target is T2, Glycoprotein G (Henipavirus nipahense, UniProt Q9IH62).
T2 sequence (Q9IH62 whole entry): T1 sequence (whole entry)
Format: cell-based. The settings on record: vero.

Consider `CCn1cc(C(=O)NCc2ccccn2)c(=O)c2cc(F)ccc21`, for which the outcome (in data set [1]; in the data set with Vero [3]) was inactive. Moreover, the Activity entry in the data set on Vero [2] is “Not Active”.

Consider `Nc1ccc2oc(Cc3ccccc3)nc2c1`, for which the Activity entry with Nipah virus is “Dose-dependent effect”. The selectivity ratio in data set [4] stood at 20. Moreover, a half-maximal effect in the data set on Vero [5] (EC50) was put at 8 µM.

Take `NC(=O)C1CCN(c2cc3c(cc2F)c(=O)c(C(=O)O)cn3C2CC2)CC1`: the outcome (in data set [1]; with Vero [3]) was inactive. In addition, the Activity entry with Vero [2] was “Not Active”.

For `CCn1cc(C(=O)NCc2ccc(Cl)cc2)c(=O)c2ccc(C(F)(F)F)cc21`, the selectivity ratio in data set [4] was above 10. The molecule further had a CC50 at 16 h in data set [6] above 20 µM.

As to `NC(=O)C1CCN(c2cc3c(cc2F)c(=O)c(C(=O)NCc2ccc(Cl)cc2Cl)cn3C2CC2)CC1`, in the data set with Nipah virus, the Activity result is “Dose-dependent effect”. The CC50 at 16 h in data set [6] was above 20 µM.

With `CCOC(=O)N1CCN(c2cc3c(cc2F)c(=O)c(C(=O)NCc2ccc(Cl)cc2Cl)cn3CC)CC1`, the CC50 at 16 h in data set [6] was above 20 µM.

Molecule `CCOC(=O)N1CCN(c2cc3c(cc2F)c(=O)c(C(=O)NCc2ccc(Cl)cc2Cl)cn3C2CC2)CC1` gave a CC50 at 16 h in data set [6] of 15 µM.

With `CCOC(=O)C1CCN(c2cc3c(cc2F)c(=O)c(C(=O)NCc2ccc(Cl)cc2Cl)cn3CC)CC1`, the Activity result in the data set with Nipah virus is “Dose-dependent effect”. The same molecule displayed a CC50 at 16 h in data set [6] of 10 µM.

Regarding `CCn1cc(C(=O)Nc2ccccc2CO)c(=O)c2ccc(C(F)(F)F)cc21`, the outcome (in data set [1]; with Vero [3]) was inactive. Moreover, in the data set on Vero [2], the Activity entry is “Not Active”.

As to `CCn1cc(C(=O)NCc2ccccn2)c(=O)c2cc(C(F)(F)F)ccc21`, the result (in data set [1]; in the data set with Vero [3]) was inactive. In the data set with Vero [2], the Activity entry was “Not Active”.

As for `CCn1cc(C(=O)NCc2ccc(OC)cc2)c(=O)c2cc(C(F)(F)F)ccc21`, the result (in data set [1]; in the data set on Vero [3]) was inactive. In addition, the Activity entry in the data set on Vero [2] was “Not Active”.

For the molecule `CCn1cc(C(=O)NCc2ccc(N)cc2)c(=O)c2cc(F)ccc21`, the outcome (in data set [1]; in the data set with Vero [3]) was inactive. Moreover, in the data set on Vero [2], the Activity entry is “Not Active”.

For `CCn1cc(C(=O)NCc2ccc(N)cc2)c(=O)c2cc(C(F)(F)F)ccc21`, the outcome (in data set [1]; in the data set on Vero [3]) was inactive. Further, in the data set with Vero [2], the Activity result is given as “Not Active”.

Take `CCn1cc(C(=O)NCc2ccc(OC)cc2)c(=O)c2cc(F)c(Cl)cc21`: the outcome (in data set [1]; in the data set on Vero [3]) was inactive. For the same molecule, the Activity entry with Vero [2] is “Not Active”.

`CCn1cc(C(=O)NCC2CC2)c(=O)c2cc(F)ccc21`: the result (in data set [1]; in the data set with Vero [3]) was inactive. In the data set on Vero [2], the Activity result is recorded as “Not Active”.

For `CCn1cc(C(=O)NCC2CC2)c(=O)c2cc(C(F)(F)F)ccc21`, the result (in data set [1]; with Vero [3]) was inactive. For the same molecule, the Activity entry in the data set on Vero [2] was “Not Active”.

`CCn1cc(C(=O)Nc2ccc(F)c(Cl)c2)c(=O)c2ccc(C(F)(F)F)cc21`: the CC50 at 16 h in data set [6] is above 20 µM. For the same molecule, the EC50 result at Glycoprotein G is reported as “Not Active”.

`C=CCN1[C@@H](c2ccc([N+](=O)[O-])cc2)C(C(=O)OCC)=C(O)C(C(=O)OCC)[C@@H]1c1ccc([N+](=O)[O-])cc1` (some centres not stated) came in with a CC50 at 16 h in data set [6] above 20 µM.

In the case of `CCOC(=O)C1CCN(c2cc3c(cc2F)c(=O)c(C(=O)O)cn3CC)CC1`, the result (in data set [1]; with Vero [3]) was inactive. The Activity entry in the data set on Vero [2] is “Not Active”.

As usually defined, the EC50 is the concentration that produces a half-maximal response. The CC50 is the concentration at which the toxic effect on the cells reaches its halfway point.
